Data on 10 compounds can be found in PubChem BioAssay (NCI).

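Values below derive from 48-hour exposures of cells grown in 96-well plates, with endpoints linearly interpolated between the two concentrations bracketing the appropriate inhibition level. The concentration for 50% growth inhibition is given as GI50. Definition used: TGI = concentration required for complete inhibition of growth.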

Some test systems named below: OVCAR-4 ovarian; UACC-257 melanoma; CAKI-1 renal; UACC-62 melanoma; SNB-75 CNS; SK-MEL-28 melanoma; UO-31 renal; SK-MEL-2 melanoma; SN12C renal; K-562 leukemia.
Common to all, as to assay: growth of human tumour cells (NCI), 48 h

On to `CS(=O)(=O)CCNCc1ccc(-c2ccc3ncnc(Nc4ccc(OCc5cccc(F)c5)c(C(F)(F)F)c4)c3c2)o1`, for which the GI50 with OVCAR-4 ovarian was 3.65 µM; with UACC-257 melanoma, 3.86 µM; in the assay with CAKI-1 renal, 4.59 µM; with UACC-62 melanoma, 3.94 µM; in the assay on SNB-75 CNS it was 3.52 µM; in the assay on SK-MEL-28 melanoma, 3.71 µM. Also, the GI50 was 3.36 µM in the assay on UO-31 renal, 4.51 µM with SK-MEL-2 melanoma, 4.73 µM with SN12C renal and 5.07 µM in the assay on K-562 leukemia. Besides, the TGI with OVCAR-4 ovarian was found to be 10.8 µM; in the assay with UACC-257 melanoma it was 7.68 µM; with CAKI-1 renal it was 13.7 µM; in the assay with UACC-62 melanoma, 7.48 µM; in the assay with SNB-75 CNS it was 7.77 µM; in the assay on SK-MEL-28 melanoma, 7.2 µM. For the same compound, the TGI came to 8.42 µM with UO-31 renal, 8.96 µM in the assay on SK-MEL-2 melanoma, 14.9 µM with SN12C renal and 20 µM in the assay on K-562 leukemia.

For `O=S(=O)(SCc1ccccc1)C(c1ccccc1)c1ccccc1`, the TGI in the assay on OVCAR-4 ovarian is above 100 µM; in the assay on UACC-257 melanoma, above 100 µM; in the assay on CAKI-1 renal it was 93.8 µM; in the assay on UACC-62 melanoma, 85.7 µM; in the assay with SNB-75 CNS, above 100 µM; in the assay with SK-MEL-28 melanoma it was above 100 µM. Besides, the TGI is above 100 µM in the assay on UO-31 renal, above 100 µM in the assay on SK-MEL-2 melanoma, 68.2 µM in the assay on SN12C renal and above 100 µM in the assay with K-562 leukemia.

On to `O=C(Cc1nc2ccccc2s1)C(=O)Nc1cccc(Cl)c1`, for which the TGI in the assay with OVCAR-4 ovarian, in the assay with UACC-257 melanoma, in the assay with CAKI-1 renal, with UACC-62 melanoma, with SNB-75 CNS and in the assay on SK-MEL-28 melanoma was above 100 µM throughout. Further, the TGI in the assay with UO-31 renal, in the assay on SK-MEL-2 melanoma, in the assay on SN12C renal and in the assay on K-562 leukemia was above 100 µM throughout.

`O=[N+]([O-])/C=C/c1cc2ccccc2[nH]1`: the TGI amounted to 27.4 µM with OVCAR-4 ovarian; 29.6 µM in the assay with UACC-257 melanoma; 33.7 µM with CAKI-1 renal; 33.7 µM in the assay with UACC-62 melanoma; 28.6 µM with SNB-75 CNS; 44 µM in the assay with SK-MEL-28 melanoma. Besides, the TGI in the assay with UO-31 renal is 31.9 µM; with SK-MEL-2 melanoma it was 34.6 µM; in the assay with SN12C renal, 37.2 µM; in the assay on K-562 leukemia, 52.8 µM.

On to `CN1CCN(c2ccc(Nc3nc(N)c(C(=O)c4ccc5c(c4)OCCO5)s3)cc2)CC1`, for which the GI50 in the assay on OVCAR-4 ovarian is 4.02 µM; with UACC-257 melanoma, 3.97 µM; with CAKI-1 renal, 1.18 µM; with UACC-62 melanoma, 4.19 µM; in the assay with SNB-75 CNS it was 2.28 µM; with SK-MEL-28 melanoma, 4.6 µM. Also, the GI50 with UO-31 renal was 2.6 µM; with SK-MEL-2 melanoma it was 4.77 µM; in the assay on SN12C renal it was 3.33 µM; in the assay on K-562 leukemia, 2.43 µM. Also, the TGI with OVCAR-4 ovarian turned out to be 10.5 µM; with UACC-257 melanoma, 12.6 µM; in the assay with CAKI-1 renal, 7 µM; with UACC-62 melanoma, 9.35 µM; in the assay with SNB-75 CNS it was 6 µM; in the assay with SK-MEL-28 melanoma, 10.5 µM. Further, the TGI with UO-31 renal was 8.02 µM; in the assay with SK-MEL-2 melanoma it was 15.2 µM; with SN12C renal it was above 25 µM; with K-562 leukemia it was 18.3 µM.

On to `Cc1ccc(C(=O)Nc2ccc(S(=O)(=O)O)c3cc(S(=O)(=O)O)cc(S(=O)(=O)O)c23)cc1NC(=S)Nc1cc(C(=O)Nc2ccc(S(=O)(=O)O)c3cc(S(=O)(=O)O)cc(S(=O)(=O)O)c23)ccc1C`, for which the TGI in the assay with OVCAR-4 ovarian, in the assay on UACC-257 melanoma, in the assay with CAKI-1 renal, in the assay with UACC-62 melanoma, with SNB-75 CNS and in the assay on SK-MEL-28 melanoma was above 75 µM each time. The TGI in the assay with UO-31 renal, in the assay on SK-MEL-2 melanoma, with SN12C renal and in the assay with K-562 leukemia was above 75 µM in each case.

Consider `O=C(Nc1cccc(Cc2cccc(NC(=O)c3ccccc3)c2)c1)c1ccccc1`, for which the TGI is 39.8 µM in the assay with OVCAR-4 ovarian; above 100 µM in the assay with UACC-257 melanoma; 47.9 µM in the assay on CAKI-1 renal; above 100 µM in the assay on UACC-62 melanoma; 27.5 µM in the assay with SNB-75 CNS; above 100 µM in the assay with SK-MEL-28 melanoma. Further, the TGI in the assay on UO-31 renal is 66.3 µM; in the assay on SK-MEL-2 melanoma, above 100 µM; in the assay on SN12C renal, above 100 µM; with K-562 leukemia, above 100 µM.

Consider `Nc1nc2cc3ccc(C4CC(O)C(CO)O4)cc3cc2c(=O)[nH]1` (stereo not given), for which the GI50 in the assay with OVCAR-4 ovarian is above 100 µM; in the assay with UACC-257 melanoma it was above 100 µM; with CAKI-1 renal, above 100 µM; in the assay with UACC-62 melanoma it was above 100 µM; in the assay on SNB-75 CNS it was 49.6 µM; in the assay with SK-MEL-28 melanoma it was above 100 µM. Also, the GI50 in the assay with UO-31 renal is 94.6 µM; in the assay on SK-MEL-2 melanoma it was 0.0927 µM; in the assay with SN12C renal, above 100 µM; with K-562 leukemia it was above 100 µM. Further, the TGI with OVCAR-4 ovarian, in the assay with UACC-257 melanoma, in the assay with CAKI-1 renal, with UACC-62 melanoma, in the assay with SNB-75 CNS and in the assay with SK-MEL-28 melanoma was above 100 µM each time. For the same compound, the TGI in the assay on UO-31 renal, with SK-MEL-2 melanoma, in the assay on SN12C renal and in the assay on K-562 leukemia was above 100 µM each time.

Take `COc1cc2c3c(n(CCCNCCCNCCCNCCCN)c(=O)c2cc1OC)-c1cc2c(cc1C3=O)OCO2`: the GI50 is 4.34 µM in the assay on OVCAR-4 ovarian; 3.72 µM with UACC-257 melanoma; 1.78 µM with CAKI-1 renal; 1.68 µM in the assay on UACC-62 melanoma; 2.98 µM with SNB-75 CNS; 2.29 µM in the assay with SK-MEL-28 melanoma. Besides, the GI50 is 7.39 µM in the assay on UO-31 renal, 4.78 µM in the assay with SK-MEL-2 melanoma, 1.56 µM in the assay on SN12C renal and 2.05 µM in the assay with K-562 leukemia. In addition, the TGI in the assay on OVCAR-4 ovarian was found to be 58 µM; with UACC-257 melanoma, 17.2 µM; in the assay with CAKI-1 renal, 3.8 µM; with UACC-62 melanoma, 6.19 µM; in the assay with SNB-75 CNS, 13.6 µM; in the assay with SK-MEL-28 melanoma it was 25.2 µM. Also, the TGI was above 100 µM in the assay with UO-31 renal, 89 µM in the assay with SK-MEL-2 melanoma, 9.35 µM in the assay on SN12C renal and 5.22 µM in the assay on K-562 leukemia.

As for `CS(=O)(=O)Nc1cccc(-c2cc(-c3ccccc3Cl)c(C#N)c(N)n2)c1`, the GI50 is 1.92 µM in the assay with OVCAR-4 ovarian; 0.5 µM in the assay on UACC-257 melanoma; 0.502 µM in the assay with CAKI-1 renal; 0.51 µM with UACC-62 melanoma; 0.239 µM in the assay on SNB-75 CNS; 1.22 µM with SK-MEL-28 melanoma. The GI50 is 0.984 µM in the assay on UO-31 renal, 0.602 µM in the assay with SK-MEL-2 melanoma, 0.722 µM in the assay on SN12C renal and 0.344 µM with K-562 leukemia. For the same compound, the TGI amounted to 35.6 µM in the assay with OVCAR-4 ovarian; 21.4 µM in the assay with UACC-257 melanoma; 24.4 µM in the assay with CAKI-1 renal; 15.5 µM with UACC-62 melanoma; 2.44 µM in the assay on SNB-75 CNS; 19.9 µM in the assay with SK-MEL-28 melanoma. Moreover, the TGI in the assay on UO-31 renal is 17.4 µM; in the assay with SK-MEL-2 melanoma it was 15.8 µM; in the assay on SN12C renal, 24.4 µM; with K-562 leukemia, above 100 µM.
